Results published in patent publication US10828315B2 (Madrigal Pharmaceuticals, Inc., priority 2013, dated 2020).
≈ marks a conversion by molar mass, not a printed value. Entries after “also recorded” stand apart in the source; their conditions may differ. Like-named read-outs stand apart in the source and are kept apart here.

Tests used:
[1] = Metabolite profiling and identification; type: in vitro ADME; set-up: key: —: Not detected; details: for Metabolite Hydrolysis (SDC-TRAP-0062) + H2O (ring opened) + glucuronide: M+1 670.3; for Metabolite Hydroxylation: M+1 896.3; for Metabolite Carboxylate form: M+1 898.3; for Metabolite Di-hydroxylation: M+1 912.4; for Metabolite Glucuronidation: M+1 1056.4; for Metabolite Hydrolysis (SN-38): M+1 393.3; for Metabolite Hydrolysis (SN-38) + H2O (carboxylate form): M+1 411.3; for Metabolite Hydrolysis (SDC-TRAP-0062): M+1 462.3; for Metabolite Hydrolysis (SDC-TRAP-0062) + N-dealkylation + glucuronide: M+1 527.3; for Metabolite Hydrolysis (SN-38) + glucuronidation: M+1 569.3; for Metabolite Hydrolysis (SN-38) + hydroxylation + glucuronidation: M+1 585.3; for Metabolite Hydrolysis (SDC-TRAP-0062) + glucuronidation: M+1 638.3; for Metabolite Hydrolysis (SDC-TRAP-0062) + oxidation + glucuronide: M+1 652.3; for Metabolite Hydrolysis (SDC-TRAP-0062) + di-oxidation + glucuronide: M+1 668.3
Text: Metabolite Profiling and Identification: Metabolite profiling/identification for SDC-TRAP-0063 (M+1:880.3)

[2] = system: SK-OV-3 xenografts; experiment: Antitumor activity in SK-OV-3 ovarian cancer xenografts; type: in vivo, female Balb/c nude mice; details: SDC-TRAP-0063 200 mg/kg group; irinotecan alone and with ganetespib; 200 mg/kg
Procedure: This model is sensitive to HSP90 inhibition.
However, once the dosing is discontinued all but 200 mg/kg of SDC-TRAP-0063 dose group maintained tumor growth inhibition for a prolonged period of time.

[3] = Chemical properties of SDC-TRAP-0063; type: physicochemical
Text: SDC-TRAP-0063 is a light yellow solid having the following chemical properties: […]

[4] = mouse
Procedure: 150 ng/mL solution of SDC-TRAP-0002 in methanol was prepared using the internal standard spiking solution. This solution was used to precipitate all plasma samples in the study. 200 μL was pipetted into a 96 deepwell plate over dry ice. 10 μL of 1 mM stock in DMSO was added to a 1.5 mL microfuge tube, then 990 μL of plasma. Samples were mixed by vortex, then 50 μL of each sample was added in triplicate to a 96-well plate containing internal standard solution. This was designated the 0 hour time point sample. 250 μL of the remaining plasma sample was added to each of four 96 deepwell plates—one per time point. Samples were incubated at 37° C. with gentle shaking for 0.25, 0.5, and 1 hour. After each time point, one plate of each sample was removed from the shaker and placed on wet ice for approximately 2 minutes. 50 μL at plasma aliquots (in triplicate) were added to the deepwell plate containing internal standard solution. After the last time point was extracted, the 96 deepwell plate was vortexed, then centrifuged at 2-8° C. 150 μL of supernatant was collected and 25 μL at of water was added. Samples were mixed and analyzed by LC-MS/MS.
990 μL mouse plasma aliquots from a common stock were spiked with 10 μL of 1 mM stock of one of seven SDC-TRAP samples identified in the table below. Each sample was mixed and divided into 250 μL aliquots, each representing time points 0, 15 minutes, 30 minutes or 1 hour. At the prescribed time point, 3×50 μL samples were each mixed with 200 μL of methanol containing internal standard and held on dry ice until all time point samples were extracted. The samples collectively were vortex mixed for 1.5 minutes at 1500 rpm, then centrifuged at 4400 rpm for 10 minutes at 8° C.

[5] = system: MCF-7 xenografts; details: mouse, in vivo
Procedure: MCF-7 breast cancer cells were purchased from ATCC. The cells were maintained in vitro as a monolayer culture in McCoy's 5a Medium. Fetal bovine serum was then added to the medium. The final concentration of fetal bovine serum was 10%. Cells were cultured at 37° C. and 5% CO2. The tumor cells were routinely sub-cultured twice weekly by trypsin-EDTA treatment. Cells in an exponential growth phase were harvested and counted for tumor inoculation.
75 24-30 g, 10-13 week old, female CD-1 nude mice were inoculated with the MCF-7 cells (5.0×10^6/mouse) orthotopically in mammary fat pad (0.1 mL/mouse). 60 days estrogen pellets was implanted the day prior to cell implantations. When the average tumor volume reached about 100-225 mm^3, 40 of the inoculated mice were selected based on tumor growth and randomly grouped into 5 treatment groups (8 mice per group) according to the following table. Mice that were not put on treatment were euthanized.
During the treatment period, the implanted tumors were measured by caliper twice per week. […] Animal body weights were also weighed and recorded 5× per week.

[6] = Artificial membrane permeability assay (PAMPA); details: same protocol, second table
Procedure: Pre-coated PAMPA plates were warmed to room temperature for at least 30 minutes prior to adding assay components.
Stock solutions were prepared with the SDC-TRAP molecules to be tested. In order to make a working solution, either 50 μL of 100 μM Stock in DMSO+950 μL of PBS or 50 μL of 200 μM stock was added to 96 deep well plate, resulting in a 5 μM final concentration or a 10 μM final concentration, respectively. 3000 μL of the working solution containing each compound to be tested was added to the appropriate well of a donor PAMPA plate. 200 μL of PBS was added into the corresponding wells of an acceptor PAMPA plates.
The acceptor plate was lowered onto the donor plate and allowed to incubate for five hours. After five hours, a 50 μL aliquot was removed from each well of each plate and added into a new 96 deep-well plate.
100 μL of methanol containing an internal standard was added to each aliquot and analyzed by LC/MS.
In order to calculate the permeability for each SDC-TRAP molecule and the control molecules, the following formula was used:

[7] = system: HCT-116 human colorectal xenografts; experiment: Mouse xenograft efficacy in HCT-116 colon cancer model; details: IV
Procedure: The cells were maintained in vitro as a monolayer culture in McCoy's 5a Medium. Fetal bovine serum was then be added to the medium. The final concentration of fetal bovine serum was 10%. Cells were cultured at 37° C. and 5% CO2. The tumor cells were routinely sub-cultured twice weekly by trypsin-EDTA treatment. Cells in an exponential growth phase were harvested and counted for tumor inoculation.
100 18-22 g, 5-7 week old, female BALB/cA nude mice were inoculated with the HCT 116 cells (2.0×10^6, 1:1 with Matrigel) subcutaneously on the back of each animal (0.1 mL/mouse). When the average tumor volume reached about 150-250 mm^3, 60 of the inoculated mice was selected based on tumor growth and randomly grouped into 6 treatment groups (10 mice per group) according to the following table.
The administrations were made with 27-gauge IV needle.
During the treatment period, the implanted tumors were measured by caliper twice per week. The tumors were measured for the maximum width (X) and length (Y) and the tumor volumes (V) were calculated using the formula: V=(X^2Y)/2. The differences in the tumor volume between the control and treatment groups were analyzed for significance using the unpaired two-tailed Student's t-test. P<0.05 was considered to be statistically significant. The animal body weights were also weighed and recorded twice per week.

CCc1c2c(nc3ccc(OC(=O)N4CCC(CCn5ccc6cc(-n7c(O)nnc7-c7cc(C(C)C)c(O)cc7O)ccc65)CC4)cc13)-c1cc3c(c(=O)n1C2)COC(=O)[C@]3(O)CC [SDC-TRAP-0063, 4,11-diethyl-4-hydroxy-3,14-dioxo-3,4,12,14-tetrahydro-1H-pyrano[3′,4′:6,7]indolizino[1,2-b]quinolin-9-yl 4-(2-(5-(3-(2,4-dihydroxy-5-isopropylphenyl)-5-hydroxy-4H-1,2,4-triazol-4-yl)-1H-indol-1-yl)ethyl)piperidine-1-carboxylate]
Metabolite Hydrolysis (SDC-TRAP-0062) + H2O (ring opened) + glucuronide ([1]; Hepatocytes Mouse): — | Metabolite Hydroxylation ([1]; Hepatocytes Mouse): — | Metabolite Carboxylate form ([1]; Hepatocytes Mouse): — | Metabolite Di-hydroxylation ([1]; Hepatocytes Mouse): — | Metabolite Glucuronidation ([1]; Hepatocytes Mouse): √ | Metabolite Hydrolysis (SN-38) ([1]; Hepatocytes Rat): — | Metabolite Hydrolysis (SN-38) + H2O (carboxylate form) ([1]; Hepatocytes Rat): — | Metabolite Hydrolysis (SDC-TRAP-0062) ([1]; Hepatocytes Rat): — | Metabolite Hydrolysis (SDC-TRAP-0062) + N-dealkylation + glucuronide ([1]; Hepatocytes Rat): — | Metabolite Hydrolysis (SN-38) + glucuronidation ([1]; Hepatocytes Rat): √ | Metabolite Hydrolysis (SN-38) + hydroxylation + glucuronidation ([1]; Hepatocytes Rat): — | Metabolite Hydrolysis (SDC-TRAP-0062) + glucuronidation ([1]; Hepatocytes Rat): — | Metabolite Hydrolysis (SDC-TRAP-0062) + oxidation + glucuronide ([1]; Hepatocytes Rat): — | Metabolite Hydrolysis (SDC-TRAP-0062) + di-oxidation + glucuronide ([1]; Hepatocytes Rat): — | Metabolite Hydrolysis (SDC-TRAP-0062) + H2O (ring opened) + glucuronide ([1]; Hepatocytes Rat): — | Metabolite Hydroxylation ([1]; Hepatocytes Rat): — | Metabolite Carboxylate form ([1]; Hepatocytes Rat): — | Metabolite Di-hydroxylation ([1]; Hepatocytes Rat): — | Metabolite Hydrolysis (SN-38) ([1]; Mouse in vivo Plasma 6 h): √ | Metabolite Hydrolysis (SN-38) + H2O (carboxylate form) ([1]; Mouse in vivo Plasma 6 h): √ | Metabolite Hydrolysis (SDC-TRAP-0062) ([1]; Mouse in vivo Plasma 6 h): √ | Metabolite Hydrolysis (SDC-TRAP-0062) + N-dealkylation + glucuronide ([1]; Mouse in vivo Plasma 6 h): √ | Metabolite Hydrolysis (SN-38) + glucuronidation ([1]; Mouse in vivo Plasma 6 h): √ | Metabolite Hydrolysis (SN-38) + hydroxylation + glucuronidation ([1]; Mouse in vivo Plasma 6 h): — | Metabolite Hydrolysis (SDC-TRAP-0062) + glucuronidation ([1]; Mouse in vivo Plasma 6 h): √ | Metabolite Hydrolysis (SDC-TRAP-0062) + oxidation + glucuronide ([1]; Mouse in vivo Plasma 6 h): √ | Metabolite Hydrolysis (SDC-TRAP-0062) + di-oxidation + glucuronide ([1]; Mouse in vivo Plasma 6 h): √ | Metabolite Hydrolysis (SDC-TRAP-0062) + H2O (ring opened) + glucuronide ([1]; Mouse in vivo Plasma 6 h): √ | Metabolite Hydroxylation ([1]; Mouse in vivo Plasma 6 h): — | Metabolite Carboxylate form ([1]; Mouse in vivo Plasma 6 h): √ | Metabolite Di-hydroxylation ([1]; Mouse in vivo Plasma 6 h): — | Metabolite Glucuronidation ([1]; Mouse in vivo Plasma 6 h): √ | Metabolite Hydrolysis (SN-38) ([1]; Mouse in vivo Tumor 24 h): √ | Metabolite Hydrolysis (SN-38) + H2O (carboxylate form) ([1]; Mouse in vivo Tumor 24 h): √ | Metabolite Hydrolysis (SDC-TRAP-0062) ([1]; Mouse in vivo Tumor 24 h): √ | Metabolite Hydrolysis (SDC-TRAP-0062) + N-dealkylation + glucuronide ([1]; Mouse in vivo Tumor 24 h): — | Metabolite Hydrolysis (SN-38) + glucuronidation ([1]; Mouse in vivo Tumor 24 h): √ | Metabolite Hydrolysis (SN-38) + hydroxylation + glucuronidation ([1]; Mouse in vivo Tumor 24 h): — | Metabolite Hydrolysis (SDC-TRAP-0062) + glucuronidation ([1]; Mouse in vivo Tumor 24 h): √ | Metabolite Hydrolysis (SDC-TRAP-0062) + oxidation + glucuronide ([1]; Mouse in vivo Tumor 24 h): — | Metabolite Hydrolysis (SDC-TRAP-0062) + di-oxidation + glucuronide ([1]; Mouse in vivo Tumor 24 h): — | Metabolite Hydrolysis (SDC-TRAP-0062) + H2O (ring opened) + glucuronide ([1]; Mouse in vivo Tumor 24 h): — | Metabolite Hydroxylation ([1]; Mouse in vivo Tumor 24 h): — | Metabolite Carboxylate form ([1]; Mouse in vivo Tumor 24 h): √ | Metabolite Di-hydroxylation ([1]; Mouse in vivo Tumor 24 h): — | Metabolite Glucuronidation ([1]; Mouse in vivo Tumor 24 h): √ | antitumor activity in SK-OV-3 xenografts (FIG. 25) [2]: maintains the tumor growth inhibition for several weeks; also recorded: statistically significant inhibitory impact on the growth of SK-OV-3 xenografts | logP [3]: 4.69 | pKa [3]: 9.27 | Stability remark beside solubility ([3]; In water (pH = 11.8*)): not stable | solubility ([3]; aqueous buffer, In water (pH = 9.7)): 33 µg/mL (≈ 37.5 µM) | solubility ([3]; aqueous buffer, In water (pH = 11.8*)): 926 µg/mL (≈ 1050 µM) | solubility ([3]; ethanol, organic solvent or mixture, In EtOH): 1560 µg/mL (≈ 1770 µM) | solubility ([3]; organic solvent or mixture, In PEG300): 5640 µg/mL (≈ 6410 µM) | Peak Area Ratio ([4]; 0 h, 10 μM): 17.9 | Peak Area Ratio ([4]; 0.5 h, 10 μM): 7.77 | Peak Area Ratio ([4]; 1 h, 10 μM): 1.98 | Peak Area Ratio ([4]; […], 10 μM): 15.6 | % Remaining (1 h) ([4]; plasma, 1 h, 10 µM): 11.1% | % Remaining (1 h, 37° C.) ([4]; plasma, 1 h, 10 µM): 11.1% | % Remaining (1 h) ([4]; plasma, 1 h, 10 μM): 11.1% | safety profile [5]: good safety profile | Mass Retention [6]: 18.7% | tolerability ([7]; HCT-116 xenografts, Q7D×3): very well tolerated | antitumor activity in HCT-116 xenografts (FIG. 23) ([7]; Q7D×3, then drug-free period, SDC-TRAP-0063 200 and 100 mg/kg, SDC-TRAP-0046 94 mg/kg, irinotecan 67 mg/kg, SYN-01 100 mg/kg): remarkable and durable antitumor activity compared with irinotecan or ganetespib plus irinotecan; also recorded: better activity in inhibiting the growth of HCT-116 cells in vivo than either positive control group; also recorded: significant dose-dependent activity
